# Tests used:
# Phytophthora infestans = format: in vivo, Phytophthora infestans on tomato; settings: hydrazone 50 ppm + 50 μM CuCl2.2H2O, applied 24 h before inoculation, assessed 7 days after inoculation, tomato
# Phytophthora capsici = test: In vitro fungitoxicity of hydrazones with and without copper towards Phytophthora capsici (Example 28, Table 3); format: cell-based; settings: 48 h; for % Inhn Plus copper Observed: copper-plus AS medium (CuCl2, 50 μM)
# [1] = tested on: Leptosphaeria nodorum (LEPTNO); test: In vitro fungitoxicity of hydrazones with and without copper towards Leptosphaeria nodorum (Example 26); format: cell-based; settings: 72 h at 25° C.; for LEPTNO % Inhn. Plus Copper Observed: copper-plus medium (CuCl2.2H2O)
# [2] = Phytophthora capsici, 0.039 μg/mL, copper-minus AS medium, read-out: % Inhn Minus copper Observed
# [3] = Parastagonospora nodorum, 72 h, compound 0.05 μg/mL, copper-minus medium, read-out: LEPTNO % Inhn. Minus Copper Observed
# [4] = Phytophthora capsici, 0.050 μg/mL, copper-minus AS medium, read-out: % Inhn Minus copper Observed
smiles,measurement,setting,value
C/C(=N\NC(=O)Cc1ccc(C(F)(F)F)cc1)c1cc(Cl)cc(Cl)c1O [Example 129],TLB % Control,Phytophthora infestans,49.0%
same,% Inhn Plus copper Observed,Phytophthora capsici; 0.039 μg/mL,96.3%
same,inhibition of growth at 0.039 µg/mL,Phytophthora capsici; [2],10.6%
same,inhibition of growth at 0.05 µg/mL,[1]; [3],5.5%
same,LEPTNO % Inhn. Plus Copper Observed,[1]; compound 0.05 μg/mL,97.8%
same,melting point,,207 to 212 °C
COc1cccc(C(=O)N/N=C/c2cc(Cl)cc(Cl)c2O)c1C [Example 99],TLB % Control,Phytophthora infestans,50.3%
same,% Inhn Plus copper Observed,Phytophthora capsici; 0.039 μg/mL,94.0%
same,inhibition of growth at 0.039 µg/mL,Phytophthora capsici; [2],23.6%
same,inhibition of growth at 0.05 µg/mL,[1]; [3],8.9%
same,LEPTNO % Inhn. Plus Copper Observed,[1]; compound 0.05 μg/mL,94.5%
same,melting point,,192 to 194 °C
Cc1ccc(C(=O)N/N=C/c2cc(Cl)cc(Cl)c2O)c(Br)c1 [Example 228],TLB % Control,Phytophthora infestans,68.4%
same,% Inhn Plus copper Observed,Phytophthora capsici; 0.050 μg/mL,86.9%
same,inhibition of growth at 0.05 µg/mL,Phytophthora capsici; [4],10%
same,inhibition of growth at 0.05 µg/mL,[1]; [3],2.6%
same,LEPTNO % Inhn. Plus Copper Observed,[1]; compound 0.05 μg/mL,97.0%
same,melting point,,240 to 242 °C
O=C(N/N=C/c1cc(Cl)cc(Cl)c1O)c1cc(Cl)ccc1Br [Example 219],TLB % Control,Phytophthora infestans,68.4%
same,% Inhn Plus copper Observed,Phytophthora capsici; 0.050 μg/mL,90.6%
same,inhibition of growth at 0.05 µg/mL,Phytophthora capsici; [4],15.3%
same,inhibition of growth at 0.05 µg/mL,[1]; [3],34.5%
same,LEPTNO % Inhn. Plus Copper Observed,[1]; compound 0.05 μg/mL,97.9%
same,melting point,,228 to 231 °C
O=C(N/N=C/c1cc(Br)cc(Br)c1O)c1cc(Cl)ccc1Br [Example 220],TLB % Control,Phytophthora infestans,89.1%
same,% Inhn Plus copper Observed,Phytophthora capsici; 0.050 μg/mL,85.5%
same,inhibition of growth at 0.05 µg/mL,Phytophthora capsici; [4],13.4%
same,inhibition of growth at 0.05 µg/mL,[1]; [3],0%
same,LEPTNO % Inhn. Plus Copper Observed,[1]; compound 0.05 μg/mL,95.3%
same,melting point,,215 to 218 °C
O=C(Cc1ccccc1)N/N=C/c1cc(Cl)cc(Br)c1O [Example 210],TLB % Control,Phytophthora infestans,37.0%
same,% Inhn Plus copper Observed,Phytophthora capsici; 0.039 μg/mL,92.7%
same,inhibition of growth at 0.039 µg/mL,Phytophthora capsici; [2],36.6%
same,inhibition of growth at 0.05 µg/mL,[1]; [3],1.9%
same,LEPTNO % Inhn. Plus Copper Observed,[1]; compound 0.05 μg/mL,94.1%
Cc1ccc(C(=O)N/N=C/c2cc(Br)cc(Br)c2O)c(Br)c1 [Example 229],TLB % Control,Phytophthora infestans,70.9%
same,% Inhn Plus copper Observed,Phytophthora capsici; 0.050 μg/mL,89.1%
same,inhibition of growth at 0.05 µg/mL,Phytophthora capsici; [4],1.6%
same,inhibition of growth at 0.05 µg/mL,[1]; [3],6%
same,LEPTNO % Inhn. Plus Copper Observed,[1]; compound 0.05 μg/mL,98.0%
same,melting point,,258 to 261 °C
Nc1ccccc1C(=O)N/N=C/c1cc(Cl)cc(Cl)c1O [Example 91],TLB % Control,Phytophthora infestans,18.0%
same,% Inhn Plus copper Observed,Phytophthora capsici; 0.039 μg/mL,93.2%
same,inhibition of growth at 0.039 µg/mL,Phytophthora capsici; [2],52.1%
same,inhibition of growth at 0.05 µg/mL,[1]; [3],0%
same,LEPTNO % Inhn. Plus Copper Observed,[1]; compound 0.05 μg/mL,79.3%
O=C(N/N=C/c1ccccc1O)c1cc(Cl)ccc1Br [Example 218],TLB % Control,Phytophthora infestans,70.9%
same,% Inhn Plus copper Observed,Phytophthora capsici; 0.050 μg/mL,93.3%
same,inhibition of growth at 0.05 µg/mL,Phytophthora capsici; [4],10.7%
same,inhibition of growth at 0.05 µg/mL,[1]; [3],0%
same,LEPTNO % Inhn. Plus Copper Observed,[1]; compound 0.05 μg/mL,92.5%
same,melting point,,222 to 225 °C
C/C(=N\NC(=O)CCc1ccccc1)c1ccccc1O [Example 131],TLB % Control,Phytophthora infestans,62.0%
same,% Inhn Plus copper Observed,Phytophthora capsici; 0.039 μg/mL,93.7%
same,inhibition of growth at 0.039 µg/mL,Phytophthora capsici; [2],5.6%
same,inhibition of growth at 0.05 µg/mL,[1]; [3],0%
same,LEPTNO % Inhn. Plus Copper Observed,[1]; compound 0.05 μg/mL,96.8%
C=CCc1cccc(/C=N/NC(=O)c2ccccc2)c1O [Example 143],TLB % Control,Phytophthora infestans,64.4%
same,% Inhn Plus copper Observed,Phytophthora capsici; 0.039 μg/mL,94.5%
same,inhibition of growth at 0.039 µg/mL,Phytophthora capsici; [2],6%
same,inhibition of growth at 0.05 µg/mL,[1]; [3],2.1%
same,LEPTNO % Inhn. Plus Copper Observed,[1]; compound 0.05 μg/mL,98.2%
O=C(Cc1ccc(Cl)cc1)N/N=C/c1cc(Cl)cc(Cl)c1O [Example 123],TLB % Control,Phytophthora infestans,71.0%
same,% Inhn Plus copper Observed,Phytophthora capsici; 0.039 μg/mL,94.8%
same,inhibition of growth at 0.039 µg/mL,Phytophthora capsici; [2],16.3%
same,inhibition of growth at 0.05 µg/mL,[1]; [3],7.5%
same,LEPTNO % Inhn. Plus Copper Observed,[1]; compound 0.05 μg/mL,95.5%
Cc1ccc(/C=N/NC(=O)c2ccc(C(C)C)cc2)c(O)c1 [Example 14],TLB % Control,Phytophthora infestans,7.5%
same,% Inhn Plus copper Observed,Phytophthora capsici; 0.039 μg/mL,87.2%
same,inhibition of growth at 0.039 µg/mL,Phytophthora capsici; [2],0%
same,inhibition of growth at 0.156 µg/mL,"[1]; Parastagonospora nodorum, 72 h, compound 0.156 μg/mL, copper-minus medium, read-out: LEPTNO % Inhn. Minus Copper Observed",2.9%
same,LEPTNO % Inhn. Plus Copper Observed,[1]; compound 0.156 μg/mL,59.1%
O=C(N/N=C/c1ccccc1O)c1ccccc1O [Example 1],TLB % Control,Phytophthora infestans,64.0%
same,% Inhn Plus copper Observed,Phytophthora capsici; 0.039 μg/mL,87.2%
same,inhibition of growth at 0.039 µg/mL,Phytophthora capsici; [2],9.7%
same,inhibition of growth at 0.05 µg/mL,[1]; [3],0.7%
same,LEPTNO % Inhn. Plus Copper Observed,[1]; compound 0.05 μg/mL,96.2%
O=C(N/N=C/c1ccccc1O)c1cccc(C(F)(F)F)c1 [Example 61],TLB % Control,Phytophthora infestans,60.0%
same,% Inhn Plus copper Observed,Phytophthora capsici; 0.039 μg/mL,95.6%
same,inhibition of growth at 0.039 µg/mL,Phytophthora capsici; [2],17.6%
same,inhibition of growth at 0.05 µg/mL,[1]; [3],3.8%
same,LEPTNO % Inhn. Plus Copper Observed,[1]; compound 0.05 μg/mL,93.6%
CCOc1ccc(C(=O)N/N=C/c2ccccc2O)cc1 [Example 21],TLB % Control,Phytophthora infestans,65.5%
same,% Inhn Plus copper Observed,Phytophthora capsici; 0.039 μg/mL,90.0%
same,inhibition of growth at 0.039 µg/mL,Phytophthora capsici; [2],0%
same,inhibition of growth at 0.05 µg/mL,[1]; [3],0.1%
same,LEPTNO % Inhn. Plus Copper Observed,[1]; compound 0.05 μg/mL,94.1%
O=C(N/N=C/c1ccccc1O)c1cc(I)ccc1Br [Example 221],TLB % Control,Phytophthora infestans,66.0%
same,% Inhn Plus copper Observed,Phytophthora capsici; 0.050 μg/mL,92.2%
same,inhibition of growth at 0.05 µg/mL,Phytophthora capsici; [4],12%
same,inhibition of growth at 0.05 µg/mL,[1]; [3],0%
same,LEPTNO % Inhn. Plus Copper Observed,[1]; compound 0.05 μg/mL,92.4%
same,melting point,,202 to 205 °C
O=C(N/N=C/c1cc(Br)cc(Br)c1O)c1cc(I)ccc1Cl [Example 226],TLB % Control,Phytophthora infestans,71.0%
same,% Inhn Plus copper Observed,Phytophthora capsici; 0.050 μg/mL,62.1%
same,inhibition of growth at 0.05 µg/mL,Phytophthora capsici; [4],2.3%
same,inhibition of growth at 0.05 µg/mL,[1]; [3],0%
same,LEPTNO % Inhn. Plus Copper Observed,[1]; compound 0.05 μg/mL,94.5%
same,melting point,,205 to 212 °C
O=C(CCc1cc(Br)c(O)c(Br)c1)N/N=C/c1cc(Cl)cc(Cl)c1O [Example 5],TLB % Control,Phytophthora infestans,22.0%
same,% Inhn Plus copper Observed,Phytophthora capsici; 0.039 μg/mL,93.9%
same,inhibition of growth at 0.039 µg/mL,Phytophthora capsici; [2],18.6%
same,inhibition of growth at 0.05 µg/mL,[1]; [3],4.8%
same,LEPTNO % Inhn. Plus Copper Observed,[1]; compound 0.05 μg/mL,56.1%
O=C(N/N=C/c1cc(Cl)cc(Cl)c1O)c1ccc2c(c1)OCO2 [Example 6],TLB % Control,Phytophthora infestans,88.1%
same,% Inhn Plus copper Observed,Phytophthora capsici; 0.039 μg/mL,95.8%
same,inhibition of growth at 0.039 µg/mL,Phytophthora capsici; [2],28.8%
same,inhibition of growth at 0.05 µg/mL,[1]; [3],3.9%
same,LEPTNO % Inhn. Plus Copper Observed,[1]; compound 0.05 μg/mL,96.4%
O=C(N/N=C/c1cc(Cl)cc(Cl)c1O)c1ccccc1F [Example 101],TLB % Control,Phytophthora infestans,85.3%
same,% Inhn Plus copper Observed,Phytophthora capsici; 0.039 μg/mL,88.2%
same,inhibition of growth at 0.039 µg/mL,Phytophthora capsici; [2],70%
same,inhibition of growth at 0.05 µg/mL,[1]; [3],7.8%
same,LEPTNO % Inhn. Plus Copper Observed,[1]; compound 0.05 μg/mL,97.3%
O=C(N/N=C/c1ccccc1O)c1ccc(-c2ccccc2)cc1 [Example 183],TLB % Control,Phytophthora infestans,66.7%
same,% Inhn Plus copper Observed,Phytophthora capsici; 0.039 μg/mL,88.9%
same,inhibition of growth at 0.039 µg/mL,Phytophthora capsici; [2],0%
same,inhibition of growth at 0.05 µg/mL,[1]; [3],0%
same,LEPTNO % Inhn. Plus Copper Observed,[1]; compound 0.05 μg/mL,96.7%
CNc1ccccc1C(=O)N/N=C/c1ccccc1O [Example 3],TLB % Control,Phytophthora infestans,47.0%
same,% Inhn Plus copper Observed,Phytophthora capsici; 0.039 μg/mL,88.5%
same,inhibition of growth at 0.039 µg/mL,Phytophthora capsici; [2],0%
same,inhibition of growth at 0.05 µg/mL,[1]; [3],2.3%
same,LEPTNO % Inhn. Plus Copper Observed,[1]; compound 0.05 μg/mL,93.0%
O=C(N/N=C/c1cc(Cl)cc(Cl)c1O)c1ccc(-c2ccccc2)cc1 [Example 74],TLB % Control,Phytophthora infestans,63.6%
same,% Inhn Plus copper Observed,Phytophthora capsici; 5 μg/mL,89.4%
same,inhibition of growth at 5 µg/mL,"Phytophthora capsici; Phytophthora capsici, 5 μg/mL, copper-minus AS medium, read-out: % Inhn Minus copper Observed",17.2%
same,inhibition of growth at 0.05 µg/mL,[1]; [3],3%
same,LEPTNO % Inhn. Plus Copper Observed,[1]; compound 0.05 μg/mL,95.7%
O=C(Cc1ccccc1)N/N=C/c1cc(Br)cc(Br)c1O [Example 124],TLB % Control,Phytophthora infestans,23.0%
same,% Inhn Plus copper Observed,Phytophthora capsici; 0.039 μg/mL,89.7%
same,inhibition of growth at 0.039 µg/mL,Phytophthora capsici; [2],25%
same,inhibition of growth at 0.05 µg/mL,[1]; [3],0%
same,LEPTNO % Inhn. Plus Copper Observed,[1]; compound 0.05 μg/mL,88.2%
